Drawing on patent US8664257B2, “Oxygen-substituted 3-heteroaroylamino-propionic acid derivatives and their use as pharmaceuticals” (Sanofi, priority 2010, dated 2014), this text covers IC50 for 43 molecules.

One test addresses T1, Recombinant human cathepsin A (Homo sapiens, UniProt P10619).
T1 construct: Recombinant human cathepsin A (residues 29-480, with a C-terminal 10-His tag); 10-His (C); purchased R&D Systems 1049-SE
T1 sequence (P10619 29-312 limits assumed): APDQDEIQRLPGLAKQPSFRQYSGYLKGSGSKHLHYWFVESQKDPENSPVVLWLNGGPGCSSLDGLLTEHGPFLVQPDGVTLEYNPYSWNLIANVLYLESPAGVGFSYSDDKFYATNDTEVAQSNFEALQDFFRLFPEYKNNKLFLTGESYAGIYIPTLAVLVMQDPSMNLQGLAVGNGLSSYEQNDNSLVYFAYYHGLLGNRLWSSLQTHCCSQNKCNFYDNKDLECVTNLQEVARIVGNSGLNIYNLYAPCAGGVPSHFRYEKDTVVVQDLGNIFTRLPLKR
T1 sequence (P10619 327-480 limits assumed): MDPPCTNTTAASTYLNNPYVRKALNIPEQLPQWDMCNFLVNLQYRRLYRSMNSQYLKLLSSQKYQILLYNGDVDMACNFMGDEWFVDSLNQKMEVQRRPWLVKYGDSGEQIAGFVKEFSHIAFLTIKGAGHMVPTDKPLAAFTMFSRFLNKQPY
The test can be described thus: Cathepsin A inhibitory activity. The conditions noted are these: pharmacological test "Cathepsin A inhibitory activity"; IC50 given as class A/B/C; read-out: Activity (2): Cathepsin A inhibitory activity, IC50 class. It is filed as biochemical. A digest of the protocol: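 Read-out was microfluidic separation of cleaved vs. uncleaved Bodipy FL-bradykinin (2 μM), giving turnover, % inhibition and IC50. Compound and 833 ng/ml enzyme met for 15 min RT in pH 5.5 MES/DTT before substrate (15 min RT). The 29-480 His-tagged human enzyme was first activated by cathepsin L, then E-64 (10 μM).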
With `Cc1ccccc1[C@H](CC(=O)O)NC(=O)c1cc(O)n(-c2ccncc2)n1` [Example 141], the IC50 lay within 1000 to 30000 nM. On the same count and under the same terms, under `Cc1cc(F)ccc1C(CC(=O)O)NC(=O)c1cc(O)n(-c2ccccc2F)n1` (stereo not shown) [Example 248] stands 100 to 1000 nM; under `O=C(O)C[C@H](NC(=O)c1cc(O)n(-c2ccccc2)n1)c1cccc(Cl)c1` [Example 167], 100 to 1000 nM.

For `O=C(O)CC(NC(=O)c1cc(O)n(-c2ccccc2Cl)n1)c1cccc(C(F)(F)F)c1F` (stereo not shown) [Example 221, 3-{[1-(2-Chloro-phenyl)-5-hydroxy-1H-pyrazole-3-carbonyl]-amino}-3-(2-fluoro-3-trifluoromethyl-phenyl)-propionic acid], the IC50 was 100 to 1000 nM. `O=C(O)CC(NC(=O)c1cc(O)n(-c2ccc(F)cc2F)n1)c1ccc(-c2ccc(F)cc2)cc1` (stereo not shown) [Example 202]: the IC50 lay in the range of 100 to 1000 nM. On the same count and under the same terms, under `CCc1ccc(C(CC(=O)O)NC(=O)c2cc(O)n(-c3ccc(F)cc3F)n2)cc1` (stereo not shown) [Example 194] stands 100 to 1000 nM. On the same count and under the same terms, next, `O=C(O)CC(NC(=O)c1cc(O)n(-c2ccccc2)n1)c1cccc2c1OCO2` (stereo not shown) [Example 158]: 100 to 1000 nM.

The same test, now with this note: read-out: Activity (2): Cathepsin A inhibitory activity (IC50 class).
Consider `COc1cc(C(=O)NC(CC(=O)O)c2cccc(F)c2C)nn1-c1ccccc1F` (stereo not shown) [Example 664], for which the IC50 is under 100 nM.

As to `Cc1ccccc1[C@H](CC(=O)O)NC(=O)c1cc(OC2CCC2)n(-c2ccccc2F)n1` [Example 648], the IC50 was under 100 nM. Same read-out and setting: next, `Cc1ccccc1[C@H](CC(=O)O)NC(=O)c1cc(O)n(-c2cc(F)ccc2F)n1` [Example 599]: under 100 nM; `COc1cccc(COc2cc(C(=O)N[C@@H](CC(=O)O)c3ccccc3C)nn2-c2ccccc2F)c1` [Example 655]: under 100 nM. Same read-out and setting: under `Cc1ccccc1[C@H](CC(=O)O)NC(=O)c1cc(OCc2ccccc2C(F)(F)F)n(-c2ccccc2F)n1` [Example 623] stands 100 to 1000 nM; under `O=C(O)CC(NC(=O)c1cc(O)n(-c2cc(F)cc(F)c2)n1)c1ccc(-c2ccc(F)cc2)cc1` (stereo not shown) [Example 587], 1000 to 30000 nM.

Consider `COc1ccc(-c2ccccc2)cc1C(CC(=O)O)NC(=O)c1cc(O)n(-c2ccccc2Cl)n1` (stereo not shown) [Example 562, 3-{[1-(2-Chloro-phenyl)-5-hydroxy-1H-pyrazole-3-carbonyl]-amino}-3-(4-methoxy-biphenyl-3-yl)-propionic acid], for which the IC50 lay within 1000 to 30000 nM. Same read-out and setting: under `Cc1ccccc1[C@H](CC(=O)O)NC(=O)c1cc(OCC(C)O)n(-c2ccccc2F)n1` (stereo partly shown) [Example 749] stands under 100 nM; under `Cc1ccccc1[C@H](CC(=O)O)NC(=O)c1cc(OCCc2ccccc2)n(-c2ccccc2F)n1` [Example 625], under 100 nM; under `CCOc1cc(C(=O)N[C@@H](CC(=O)O)c2ccccc2F)nn1-c1ccccc1F` [Example 720], under 100 nM. Still for that read-out and setting: under `CCOc1cc(C(=O)NC(CC(=O)O)c2ccc(F)cc2C)nn1-c1ccccc1F` (stereo not shown) [Example 718] stands under 100 nM; under `CC(C)(C)[C@](C)(O)COc1cc(C(=O)N[C@@H](CC(=O)O)c2ccccc2Cl)nn1-c1ccccc1F` (single isomer, unassigned) [Example 759], under 100 nM; under `CCOc1cc(C(=O)N[C@@H](CC(=O)O)c2ccc(C(F)(F)F)cc2)nn1-c1ccccc1Cl` [Example 735], 100 to 1000 nM.

Take `Cc1ccccc1[C@H](CC(=O)O)NC(=O)c1cc(OC[C@](C)(O)C2CC2)n(-c2ccccc2F)n1` (single isomer, unassigned) [Example 763]: the IC50 is under 100 nM. On the same count and under the same terms, under `CCOc1cc(C(=O)N[C@@H](CC(=O)O)c2cccc(C)c2)nn1-c1ccccc1Cl` [Example 732] stands under 100 nM.

Turning to `CCOc1cc(C(=O)N[C@@H](CC(=O)O)c2cccc(Cl)c2Cl)nn1-c1ccccc1F` [Example 722], the IC50 was under 100 nM. Still for that read-out and setting: under `Cc1ccc([C@H](CC(=O)O)NC(=O)c2cc(OC[C@@](C)(O)C(C)C)n(-c3ccccc3F)n2)cc1` [Example 766, (S)-3-{[1-(2-Fluoro-phenyl)-5-((S)-2-hydroxy-2,3-dimethyl-butoxy)-1H-pyrazole-3-carbonyl]-amino}-3-p-tolyl-propionic acid] stands under 100 nM.

Still in this test, the particulars now being: read-out: Activity (2): Cathepsin A inhibitory activity, IC50 class.
With `CC(C)[C@@](C)(O)COc1cc(C(=O)NCC(C(=O)O)c2ccccc2)nn1-c1ccccc1F` (stereo partly drawn) [Example 827, 3-{[1-(2-Fluoro-phenyl)-5-((R)-2-hydroxy-2,3-dimethyl-butoxy)-1H-pyrazole-3-carbonyl]-amino}-2-phenyl-propionic acid], the IC50 was 100 to 1000 nM. On the same count and under the same terms, next, `O=C(O)CC(NC(=O)c1cc(O)n(-c2cccc(F)c2)n1)c1cccc(Cl)c1` (stereo not shown) [Example 301]: 100 to 1000 nM; `COc1ccccc1[C@@H](NC(=O)c1cc(O)n(-c2ccc(Cl)cc2)n1)[C@@H](O)C(=O)O` [Example 282]: 1000 to 30000 nM.

As for `Cc1ccc(C)c(-n2nc(C(=O)NC(CC(=O)O)c3ccc(C(F)(F)F)cc3)cc2O)c1` (stereo not shown) [Example 57], the IC50 fell in the range of 1000 to 30000 nM.

For the molecule `Cc1cccc(C(CC(=O)O)NC(=O)c2cc(O)n(-c3ccc(Cl)cc3)n2)c1C` (stereo not shown) [Example 287], the IC50 lay in the range of 100 to 1000 nM. With `Cc1ccccc1[C@H](CC(=O)O)NC(=O)c1cc(O)n(-c2ccccc2)n1` [Example 82], the 50% inhibitory concentration (IC50) is under 100 nM. As to `Cc1ccccc1C(CC(=O)O)NC(=O)c1cc(O)n(-c2ccc(F)c(Cl)c2)n1` (stereo not shown) [Example 80], the IC50 lay within 100 to 1000 nM. On to `O=C(O)C[C@H](NC(=O)c1cc(O)n(-c2ccccc2F)n1)c1ccc(Cl)cc1Cl` [Example 117], for which the IC50 lay within 100 to 1000 nM.

`CC(C)CC(CC(=O)O)NC(=O)c1cc(OCC(C)(O)C(C)C)n(-c2ccccc2F)n1` (stereo not shown) [Example 814, 3-{[1-(2-Fluoro-phenyl)-5-(2-hydroxy-2,3-dimethyl-butoxy)-1H-pyrazole-3-carbonyl]-amino}-5-methyl-hexanoic acid]: the IC50 is under 100 nM. Same read-out and setting: under `COc1cccc([C@H](CC(=O)O)NC(=O)c2cc(O)n(-c3ccc(F)cc3)n2)c1` [Example 348] stands 1000 to 30000 nM; under `COc1cccc([C@H](CC(=O)O)NC(=O)c2cc(OC[C@@](C)(O)C(C)(C)C)n(-c3ccccc3F)n2)c1OC` [Example 884, (S)-3-(2,3-Dimethoxy-phenyl)-3-{[1-(2-fluoro-phenyl)-5-((S)-2-hydroxy-2,3,3-trimethyl-butoxy)-1H-pyrazole-3-carbonyl]-amino}-propionic acid], under 100 nM.

Staying with this test, now noted: recombinant human cathepsin A 833 ng/ml, Bodipy FL-labeled bradykinin 2 μM, pH 5.5; read-out: CATH-A IC50.
Consider `Cc1ccc([C@H](CC(=O)O)NC(=O)c2cc(O)n(-c3ccc(F)cc3)n2)cc1` [Example 526, (S)-3-{[1-(4-Fluoro-phenyl)-5-hydroxy-1H-pyrazole-3-carbonyl]-amino}-3-p-tolyl-propionic acid], for which the IC50 was found to be 358 nM. Turning to `COc1ccc(-c2ccccc2)cc1C(CC(=O)O)NC(=O)c1cc(O)n(-c2ccccc2Cl)n1` (stereo not shown) [Example 562, 3-{[1-(2-Chloro-phenyl)-5-hydroxy-1H-pyrazole-3-carbonyl]-amino}-3-(4-methoxy-biphenyl-3-yl)-propionic acid], the IC50 amounted to 4490 nM.

As to `O=C(O)CC(NC(=O)c1cc(O)n(-c2ccccc2Cl)n1)c1cccc(C(F)(F)F)c1F` (stereo not shown) [Example 221, 3-{[1-(2-Chloro-phenyl)-5-hydroxy-1H-pyrazole-3-carbonyl]-amino}-3-(2-fluoro-3-trifluoromethyl-phenyl)-propionic acid], the IC50 stood at 322 nM. For the molecule `Cc1ccc([C@H](CC(=O)O)NC(=O)c2cc(OC[C@@](C)(O)C(C)C)n(-c3ccccc3F)n2)cc1` [Example 766, (S)-3-{[1-(2-Fluoro-phenyl)-5-((S)-2-hydroxy-2,3-dimethyl-butoxy)-1H-pyrazole-3-carbonyl]-amino}-3-p-tolyl-propionic acid], the IC50 turned out to be 0.692 nM. Regarding `O=C(O)CC(NC(=O)c1cc(O)n(-c2ccc(F)cc2F)n1)c1cccc2c1OC(F)(F)O2` (stereo not shown) [Example 450, 3-(2,2-Difluoro-benzo[1,3]dioxol-4-yl)-3-{[1-(2,4-difluoro-phenyl)-5-hydroxy-1H-pyrazole-3-carbonyl]-amino}-propionic acid], the IC50 worked out at 409 nM.

Take `Cc1c(F)cccc1C(CC(=O)O)NC(=O)c1cc(O)n(-c2ccccc2F)n1` (stereo not shown) [Example 516, 3-(3-Fluoro-2-methyl-phenyl)-3-{[1-(2-fluoro-phenyl)-5-hydroxy-1H-pyrazole-3-carbonyl]-amino}-propionic acid]: the IC50 turned out to be 102 nM.

The test is the same for the next values; noted with them: recombinant human cathepsin A; read-out: Activity (2): Cathepsin A inhibitory activity, IC50 class.
Take `Cc1ccc([C@H](CC(=O)O)NC(=O)c2cc(O)n(-c3ccc(F)cc3)n2)cc1` [Example 526, (S)-3-{[1-(4-Fluoro-phenyl)-5-hydroxy-1H-pyrazole-3-carbonyl]-amino}-3-p-tolyl-propionic acid]: the IC50 lay in the range of 100 to 1000 nM. Still for that read-out and setting: under `COc1cc(C(=O)N[C@@H](CC(=O)NC2CC2)c2ccccc2C)nn1-c1ccccc1F` [Example 933, 1-(2-Fluoro-phenyl)-5-methoxy-1H-pyrazole-3-carboxylic acid ((S)-2-cyclopropylcarbamoyl-1-o-tolyl-ethyl)-amide] stands under 100 nM; under `Cc1ccc([C@H](CC(=O)O)NC(=O)c2cc(O)n(-c3cccc(F)c3)n2)cc1` [Example 489], 100 to 1000 nM; under `COc1cc(C(=O)N[C@@H](CC(=O)Nc2cc(C)on2)c2ccccc2C)nn1-c1ccccc1F` [Example 932, 1-(2-Fluoro-phenyl)-5-methoxy-1H-pyrazole-3-carboxylic acid [(S)-2-(5-methyl-isoxazol-3-ylcarbamoyl)-1-o-tolyl-ethyl]-amide], 100 to 1000 nM.

With `O=C(O)CC(NC(=O)c1cc(O)n(-c2ccc(F)cc2F)n1)c1cccc2c1OC(F)(F)O2` (stereo not shown) [Example 450, 3-(2,2-Difluoro-benzo[1,3]dioxol-4-yl)-3-{[1-(2,4-difluoro-phenyl)-5-hydroxy-1H-pyrazole-3-carbonyl]-amino}-propionic acid], the IC50 lay within 100 to 1000 nM. On the same count and under the same terms, under `O=C(O)CC(NC(=O)c1cc(O)n(-c2ccccc2F)n1)c1cccc2c1OC(F)(F)O2` (stereo not shown) [Example 476] stands 100 to 1000 nM; under `Cc1c(F)cccc1C(CC(=O)O)NC(=O)c1cc(O)n(-c2ccccc2F)n1` (stereo not shown) [Example 516, 3-(3-Fluoro-2-methyl-phenyl)-3-{[1-(2-fluoro-phenyl)-5-hydroxy-1H-pyrazole-3-carbonyl]-amino}-propionic acid], 100 to 1000 nM; under `COc1cc(C(=O)N[C@@H](CC(=O)N[C@@H](CO)C(C)C)c2ccccc2C)nn1-c1ccccc1F` [Example 927, 1-(2-Fluoro-phenyl)-5-methoxy-1H-pyrazole-3-carboxylic acid [(S)-2-((R)-1-hydroxymethyl-2-methyl-propylcarbamoyl)-1-o-tolyl-ethyl]-amide], 100 to 1000 nM.

Broadly, the IC50 is the concentration at which inhibition is half-maximal.
